Experimental data from US12214021B2 (CHINA AGRICULTURAL UNIVERSITY, priority 2018, dated 2025).

Tests used:
osteoblasts = test: proliferation of osteoblasts promoted by LF (MTT method); assay type: cell-based; settings: 1 nM together with LF, FIG. 4
Experimental: Based on transcriptome data, the inventors verified that LF can promote the high expression of VDR at both the gene and protein levels. In order to confirm the role of this pathway in the promotion of osteoblast proliferation and differentiation by LF, the inventors first designed a VDR siRNA to achieve the purpose of transiently silencing VDR genes. The principle of siRNA is the post-transcriptional gene silencing mechanism that blocks the expression of corresponding gene. 20 μM VDR siRNA was added to osteoblasts, the proliferation rate of osteoblasts promoted by LF was detected by MTT method, and the ALP activity of osteoblasts promoted by LF was detected by enzyme-linked immunoassay.
The inventors first confirmed that LF promotes the proliferation and differentiation of osteoblasts through the regulation of the VDR pathway using the osteoblast model. Since the osteogenic effect of VDR is mainly achieved by vitamin D, in order to simulate the normal physiological environment, the inventors treated osteoblasts with both 1 nM of […] (the active form of vitamin D) and LF, and then studied the proliferation and differentiation of osteoblasts.

VDR = test: effect of p38 and TGF-β/Smads pathway inhibitors on VDR expression promoted by LF; assay type: cell-based; settings: for effect of inhibitor on the expression of VDR promoted by LF in the cytoplasm: FIG. 17A; for effect of inhibitor on the expression of VDR promoted by LF in nucleus: FIG. 17B
Experimental: In order to verify the mechanism of LF for promoting the high expression of VDR, firstly, inhibitors were used in the cytoplasm to inhibit the extracellular signaling pathway to detect the promotion effect of LF on VDR. The p38 inhibitor SB203580 and the TGF-β/smads pathway inhibitor SB431542 were added to detect the expression of VDR promoted by LF.
Since VDR mainly functions in the nucleus, after inhibiting the pathway using SB203580 and SB431542 inhibitors, the expression of VDR promoted by LF in nucleus was detected.

SMILES	effect of the presence of 1.25(OH)2D3 on the osteogenic activity of LF (osteoblasts)	effect of inhibitor on the expression of VDR promoted by LF in the cytoplasm (VDR)	effect of inhibitor on the expression of VDR promoted by LF in nucleus (VDR)
C=C1/C(=C\C=C2/CCC[C@]3(C)[C@@H]([C@H](C)CCCC(C)(C)O)CC[C@@H]23)C[C@@H](O)C[C@@H]1O [1.25(OH)2D3, reference compound]	does not affect		
C[S+]([O-])c1ccc(-c2nc(-c3ccncc3)c(-c3ccc(F)cc3)[nH]2)cc1 (centres unmarked) [SB203580]		no significant effect	no significant effect
NC(=O)c1ccc(-c2nc(-c3ccc4c(c3)OCO4)c(-c3ccccn3)[nH]2)cc1 [SB431542]		no significant effect	no significant effect
